Assay [1] addresses Intercellular adhesion molecule (ICAM-1), Integrin alpha-L/beta-2 (Homo sapiens, UniProt P05107+P05362+P20701). The assay is described as follows: (§1) Inhibition of LFA1 binding to full length soluble ICAM1 by gamma scintillation counter. The class given is protein-complex assay.
Assay [2] deals with Intercellular adhesion molecule (ICAM-1), Integrin alpha-L/beta-2 (Homo sapiens) (UniProt P20701+P05362+P05107). Described as §1. The assay is classed as protein-complex assay.

The source made the active and inactive calls. No cut-off for these calls is given here.

Chain of Intercellular adhesion molecule (ICAM-1), Integrin alpha-L/beta-2 (P20701 whole entry): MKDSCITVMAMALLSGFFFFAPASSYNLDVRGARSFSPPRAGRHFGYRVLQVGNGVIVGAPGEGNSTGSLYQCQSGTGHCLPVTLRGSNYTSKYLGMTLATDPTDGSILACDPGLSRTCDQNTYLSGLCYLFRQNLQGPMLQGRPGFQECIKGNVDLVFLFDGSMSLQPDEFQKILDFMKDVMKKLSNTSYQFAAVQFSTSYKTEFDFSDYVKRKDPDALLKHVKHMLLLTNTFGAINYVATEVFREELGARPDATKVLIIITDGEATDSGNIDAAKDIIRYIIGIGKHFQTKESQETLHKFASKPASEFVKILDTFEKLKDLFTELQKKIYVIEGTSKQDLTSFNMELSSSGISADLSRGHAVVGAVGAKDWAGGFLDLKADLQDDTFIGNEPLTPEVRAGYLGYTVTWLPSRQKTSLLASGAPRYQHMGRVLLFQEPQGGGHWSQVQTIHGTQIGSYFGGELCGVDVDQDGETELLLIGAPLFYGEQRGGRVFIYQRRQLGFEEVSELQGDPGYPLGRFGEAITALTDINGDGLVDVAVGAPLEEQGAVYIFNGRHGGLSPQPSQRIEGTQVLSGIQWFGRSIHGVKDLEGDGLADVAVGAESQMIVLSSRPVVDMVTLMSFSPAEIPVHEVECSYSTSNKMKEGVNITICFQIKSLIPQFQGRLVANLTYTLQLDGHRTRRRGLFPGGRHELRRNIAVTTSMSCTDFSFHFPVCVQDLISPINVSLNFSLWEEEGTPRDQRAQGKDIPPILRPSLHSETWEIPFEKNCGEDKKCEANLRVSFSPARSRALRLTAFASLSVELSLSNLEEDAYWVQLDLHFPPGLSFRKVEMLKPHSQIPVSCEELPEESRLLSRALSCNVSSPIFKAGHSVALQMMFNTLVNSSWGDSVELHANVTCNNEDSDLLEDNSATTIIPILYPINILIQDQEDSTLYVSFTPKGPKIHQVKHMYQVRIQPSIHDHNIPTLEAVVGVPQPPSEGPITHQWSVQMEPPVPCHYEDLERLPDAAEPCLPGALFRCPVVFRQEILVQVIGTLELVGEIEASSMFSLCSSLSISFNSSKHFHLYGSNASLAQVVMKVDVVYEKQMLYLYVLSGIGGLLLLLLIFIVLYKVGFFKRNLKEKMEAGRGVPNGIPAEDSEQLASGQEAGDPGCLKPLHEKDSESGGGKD
Chain of Intercellular adhesion molecule (ICAM-1), Integrin alpha-L/beta-2 (P05362 whole entry): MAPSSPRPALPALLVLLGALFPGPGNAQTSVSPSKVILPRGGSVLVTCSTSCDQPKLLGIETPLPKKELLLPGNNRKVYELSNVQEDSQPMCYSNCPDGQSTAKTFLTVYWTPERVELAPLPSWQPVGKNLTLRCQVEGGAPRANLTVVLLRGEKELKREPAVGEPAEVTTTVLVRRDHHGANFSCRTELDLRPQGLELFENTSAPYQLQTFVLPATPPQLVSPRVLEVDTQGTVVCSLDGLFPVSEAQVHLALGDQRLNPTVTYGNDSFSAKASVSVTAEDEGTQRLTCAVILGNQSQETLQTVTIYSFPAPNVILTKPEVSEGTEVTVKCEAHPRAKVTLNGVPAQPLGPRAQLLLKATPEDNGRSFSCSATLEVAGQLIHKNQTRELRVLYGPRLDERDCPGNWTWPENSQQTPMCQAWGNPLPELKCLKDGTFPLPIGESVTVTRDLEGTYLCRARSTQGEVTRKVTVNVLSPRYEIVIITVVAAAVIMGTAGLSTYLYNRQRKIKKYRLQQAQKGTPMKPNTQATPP
Chain of Intercellular adhesion molecule (ICAM-1), Integrin alpha-L/beta-2 (P05107 whole entry): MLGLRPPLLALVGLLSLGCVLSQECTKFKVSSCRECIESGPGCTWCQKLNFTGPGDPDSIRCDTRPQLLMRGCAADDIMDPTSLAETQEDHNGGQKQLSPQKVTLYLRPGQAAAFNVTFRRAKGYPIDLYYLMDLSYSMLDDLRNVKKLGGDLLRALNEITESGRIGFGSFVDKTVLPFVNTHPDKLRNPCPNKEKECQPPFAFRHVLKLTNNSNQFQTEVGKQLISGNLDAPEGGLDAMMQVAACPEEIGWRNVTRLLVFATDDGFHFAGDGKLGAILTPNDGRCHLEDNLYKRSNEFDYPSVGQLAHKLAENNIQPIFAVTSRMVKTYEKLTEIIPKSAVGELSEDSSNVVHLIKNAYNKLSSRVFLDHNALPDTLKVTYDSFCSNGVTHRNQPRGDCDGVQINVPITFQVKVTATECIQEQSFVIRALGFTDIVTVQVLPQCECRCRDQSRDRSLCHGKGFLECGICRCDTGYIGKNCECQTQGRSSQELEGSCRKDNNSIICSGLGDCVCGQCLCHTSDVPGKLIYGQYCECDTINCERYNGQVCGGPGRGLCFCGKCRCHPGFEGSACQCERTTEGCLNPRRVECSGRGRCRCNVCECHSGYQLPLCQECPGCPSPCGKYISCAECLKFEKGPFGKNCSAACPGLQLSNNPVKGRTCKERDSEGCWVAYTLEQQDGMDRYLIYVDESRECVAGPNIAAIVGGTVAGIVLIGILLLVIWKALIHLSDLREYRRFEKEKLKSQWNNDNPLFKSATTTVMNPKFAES

Broadly, the IC50 is the midpoint of a concentration-inhibition curve. A higher IC50 goes with weaker potency in that assay. Turning to `C=C/C(C)=C/C[C@]1(C)[C@H]2C[C@@H](OC(=O)/C(C)=C/C)C[C@@H]3[C@H](OC(C)=O)OC(OC(C)=O)[C@@]32[C@H](O)C[C@@H]1C` (some centres undefined) [CASEARINOL A], the half-inhibitory concentration (IC50) in assay [1] was 50 µM. This lies in the double-digit micromolar range.
As for `C=C/C(C)=C\C[C@]1(C)[C@H]2C[C@@H](OC(C)=O)C[C@@H]3[C@H](OC(C)=O)O[C@H](OC(C)=O)[C@@]32C(=O)C[C@@H]1C`, the result in assay [2] was Active.
On the same count and under the same terms, in the case of `C=C/C(C)=C/C[C@]1(C)[C@H]2C[C@@H](OC(C)=O)C[C@@H]3[C@H](OC(C)=O)O[C@H](OC(C)=O)[C@@]32C(=O)C[C@@H]1C` it was “Active”; in that of `C=C/C(C)=C/C[C@]1(C)[C@H]2C[C@@H](OC(=O)C(C)CC)C[C@@H]3[C@H](OC(C)=O)OC(OC(C)=O)[C@@]32[C@H](O)C[C@@H]1C` (some centres undefined), “Active”.
